From patent publication US6946260B2, “Allergen/inflammatory testing and diagnosis” (Euro/DPC Limited, priority 1992, dated 2005)

Experiments:
Assay type in all cases: cell-based, rat
[1] = test system: RBL-2H3 cell-line transfected with the α-chain of the human high-affinity receptor for IgE; assay: Attenuation of antigen- or irritant-induced mediator release by antagonists; settings: competing sugars; lectins of e.g. pollen or bacterial and viral agglutinins
Protocol: For example, where a composition was being tested or developed for its ability to attenuate an IgE mediated response such as asthma or hay fever, antigen specific IgE would be present, for example, in the form of human serum.
Following incubation, cells were washed (2×1 ml) with buffer A (120 mM NaC1, 5 mM KC1, 25 mM PIPES, 1 mM CaC12, 0.04 mM MgC12, 5.6 mM glucose, 0.1% BSA, pH7.4) and pre-incubated for a further period of 10 minutes at 37 degrees C. with buffer A (0.5 ml) which was removed before challenge with buffer A (0.4 ml) supplemented with a pre-selected antigen (in an amount as afore described) and the therapeutic composition or the antagonist.
(§1) For the determination of antigen induced [^3H]-5HT release, the well was incubated at 37 degrees C. for 15 minutes, cooled on ice, supernatant was then removed and spun at 2000 g (1 minute) before liquid scintillation counting (2 minutes). The percentage release of [^3H]-5HT was calculated by the method of Siraganian and Hook.

[2] = test system: RBL-2H3 (H 2/2/C) transfectants; assay: Antigen-induced mediator release after sensitization with serum from a bee-venom-allergic individual; settings: cells sensitized with serum (1:10) of bee venom sensitive individual (EC), increasing antigen concentrations
Protocol: Triggering of RBL-2H3 (H 2/2/C) transfectants following sensitization with serum from a bee-venom-allergic individual. Cells were incubated with the serum (1:10), Dex (10-^6M) and [^3H]-5HT. After washing and pre-incubation the cells were challenged with a range of concentrations of purified bee venom phospholipase A2 (PLA2). The percentage release of [^3H]-5HT (●) and β-hexosaminidase (∘) were determined; data were corrected for background and normalized with respect to values obtained for triggering with hIgE-DNP (1 μg/mL and NIP-HSA (100 ng/mL).
Transfected RBL-2H3 clones were incubated for 24 hours with or without serum (1:10 dilution) from a bee venom sensitive individual (EC) in the presence of 10-^6M dexamethazone and [^3H]-5-hydroxytryptamine. […]
[^3H]-5-Hydroxytyptamine was measured after a 15 minutes incubation period, release was corrected for background and expressed relative to the total [^3H]-5-hydroxytryptamine incorporated. […]
as §1, with “Hook (Manual of Clinical Immunology of the American Society for Microbiology Washington D.C., 1980 Page 808).” for “Hook.”

[3] = test system: RBL-2H3 cell-line transfected with the α-chain of the human high-affinity receptor for IgE; assay: Irritant/antigen-induced mediator release in the absence of IgE sensitization; settings: control, no sensitizing serum; same antigen concentrations
Protocol: Parent RBL-2H3 cells or clones transfected with the α-chain of the human high-affinity receptor complex were plated out in 24-well plates at 2×10^5 cells/well as described previously in the citations referred to on Page 2 of this application. For the determination of antigen-induced mediator release, plates were incubated at 37 degrees C. for 15 minutes, cooled on ice, the supernatant was removed, spun at […] (1 minute) before liquid scintillation counting to measure [^3H]-5-hydroxytryptamine (5-HT release. The ImmunoTech histamine enzyme immunoassay was used to quantify histamine release, and hydrolysis of toluene sulphonyl methyl ester was employed to monitor protease release (please see Wilson, A. P. M., Pullar, C. E., Camp, A. M., and Helm B. A., Human IgE Mediates Stimulus Secretion Coupling in Rat Basophilic Leukemia Cells Transfected with the Alpha Chain of the Human High-Affinity Receptor, European Journal of Immunology, 23:240-244, 1993, or alternatively, please see other references cited on Page 2 of this application). […]
For the determination of irritant or antigen induced [^3H]-5HT release, the well was incubated at 37 degrees C. for 15 minutes, cooled in ice, supernatant was then removed and spun at 2000 g (1 minute) before liquid scintillation counting (2 minutes). The percentage release of [^3H]-5HT was calculated by the method of Siraganian and Hook. […]

Compound	inhibition of triggering of mast cells and basophils by lectins [1]	other results
CC(=O)N[C@H]1[C@H]([C@H](O)[C@H](O)CO)OC(O)(C(=O)O)C[C@@H]1O (stereo partly drawn) [N-acetyl neuraminic acid]	can inhibit the triggering of mast cells and basophils	
CO[C@H]1O[C@H](CO)[C@@H](O)[C@H](O)[C@@H]1O [a-methyl-mannoside]	can inhibit the triggering of mast cells and basophils	
CC(=O)N[C@H]1C(O)O[C@H](CO)[C@@H](O)[C@@H]1O (stereo partly drawn) [N-acetyl-D-glucosamin]	can inhibit the triggering of mast cells and basophils	
OC[C@H]1O[C@@H](O[C@H]2[C@H](O)[C@@H](O)C(O)O[C@@H]2CO)[C@H](O)[C@@H](O)[C@H]1O (stereo partly drawn) [lactose]	can inhibit the triggering of mast cells and basophils	
OC[C@H]1O[C@@H](O)[C@H](O)[C@@H](O)[C@H]1O [b-D-galactose]	can inhibit the triggering of mast cells and basophils	
C[C@@H]1O[C@@H](O)[C@@H](O)[C@H](O)[C@@H]1O [a-L-fucose]	can inhibit the triggering of mast cells and basophils	
bee venom phospholipase A2		mediator release ([3H]-5HT, β-hexosaminidase) dose response in sensitized cells [2]: typical bell-shaped dose response pattern; mediator release ([3H]-5HT, β-hexosaminidase) dose response in sensitized cells ([2]; listed as bee venom PLA2): typical bell-shaped dose response curve; mediator release dose response in non-sensitized cells [3]: mediator release increased in response to antigen concentration
